Inhibition data for 33 compounds are collected here from patent US7109186B2 (Bristol-Myers Squibb Company, priority 2002, dated 2006).

One may read the inhibition as the change of the read-out against control, counted positive when it falls.

Molecules are shown by their SMILES.

In the assay the target is T1, HIV-integrase (Human immunodeficiency virus type 1 group M subtype B, UniProt P04585).
T1 construct: 0.26 ng of recombinant integrase was incubated with the beads for 90 min at 37 C
Kind of assay: HIV integrase SPA integration assay (biotin-labeled substrate DNA on streptavidin SPA beads, P33-labeled target DNA). In kind it is biochemical. As to conditions: percent inhibition of HIV-integrase in the presence of 20 μM of compound. As for the experimental part:
For each reaction, 5 pmole of biotin labeled substrate DNA was bound to 100 ug of Streptavidin coated PVT SPA beads (Amersham Pharmacia Biotech). 0.26 ng of recombinant integrase was incubated with the beads for 90 min at 37 C. Unbound enzyme was removed by washing the complex followed by addition of inhibitors and 0.1 fmol of P33 labeled target DNA. Reaction was stopped by adding EDTA to a final concentration of 10 mM. Samples were counted in TopCountNXT (Packard) and the CPM was used as a measure of integration. Reaction condition was as described in A. Engelman and R. Craigie, J. Virol. 69, 5908–5911 (1995). The sequences of substrate and target DNA were described in Nucleic Acid Research 22, 1121–1122 (1994).
For the compound `CN1CC(C(=O)N(C)Cc2ccc(F)cc2)=C(O)C1=O` [Compound 1, 4-Hydroxy-1-methyl-5-oxo-2,5-dihydro-1H-pyrrole-3-carboxylic acid (4-fluoro-benzyl)-methyl amide], the inhibition at 20 µM stood at 99.9%.
Under `CN(Cc1ccc(F)cc1)C(=O)C1=C(O)C(=O)N(CCc2ccc(Cl)cc2)C1` [Compound 2, 1-[2-(4-Chloro-phenyl)ethyl]-4-hydroxy-5-oxo-2,5-dihydro-1H-pyrrole-3-carboxylic acid (4-fluoro-benzyl)-methyl amide] stands 99.9%.
Under `CN(Cc1ccc(F)cc1)C(=O)C1=C(O)C(=O)N(CCc2ccccc2Cl)C1` [Compound 3, 1-[2-(Chloro-phenyl)-ethyl]-4-hydroxy-5-oxo-2,5-dihydro-1H-pyrrole-3-carboxylic acid (4-fluoro-benzyl)-methyl amide] stands 99.9%; under `CN(Cc1ccc(F)cc1)C(=O)C1=C(O)C(=O)N(CCc2cccs2)C1` [Compound 4, 4-Hydroxy-5-oxo-1-(2-thiophen-2-yl-ethyl)-2,5-dihydro-1H-pyrrole-3-carboxylic acid (4-fluoro-benzyl)-methyl-amide], 99.9%; under `CN(Cc1ccc(F)cc1)C(=O)C1=C(O)C(=O)N(CCc2ccccc2F)C1` [Compound 5, 1-[2-(2-Fluoro-phenyl)-ethyl]-4-hydroxy-5-oxo-2,5-dihydro-1H-pyrrole-3-carboxylic acid (4-fluoro-benzyl)-methyl-amide], 99.8%.
With `CN(Cc1ccc(F)cc1)C(=O)C1=C(O)C(=O)N(CCc2ccc(Cl)cc2Cl)C1` [Compound 6, 1-[2-(2,4-Dichloro-phenyl)-ethyl]-4-hydroxy-5-oxo-2,5-dihydro-1H-pyrrole-3-carboxylic acid (4-fluoro-benzyl)-methyl-amide], the inhibition at 20 µM was 99.9%.
Regarding `CN(Cc1ccc(F)cc1)C(=O)C1=C(O)C(=O)N(CCc2ccncc2)C1` [Compound 7, 4-Hydroxy-5-oxo-1-(2-pyridin-4-yl-ethyl)-2,5-dihydro-1H-pyrrole-3-carboxylic acid (4-fluoro-benzyl)-methyl-amide], the inhibition at 20 µM was 99.9%.
Under `CN(Cc1ccc(F)cc1)C(=O)C1=C(O)C(=O)N(CCc2ccccc2)C1` [Compound 8, 4-Hydroxy-5-oxo-1-phenethyl-2,5-dihydro-1H-pyrrole-3-carboxylic acid (4-fluoro-benzyl)-methyl-amide] stands 99.9%; under `CN(Cc1ccc(F)cc1)C(=O)C1=C(O)C(=O)N(CCc2ccc(F)cc2)C1` [Compound 9, 1-[2-(4-Fluoro-phenyl)-ethyl]-4-hydroxy-5-oxo-2,5-dihydro-1H-pyrrole-3-carboxylic acid (4-fluoro-benzyl)-methyl amide], 99.9%; under `CN(Cc1ccc(F)cc1)C(=O)C1=C(O)C(=O)N(CCCc2ccccc2)C1` [Compound 10, 4-Hydroxy-5-oxo-1-(3-phenyl-propyl)-2,5-dihydro-1H-pyrrole-3-carboxylic acid (4-fluoro-benzyl)-methyl-amide], 99.9%.
Under `CC(C)N1CC(C(=O)N(C)Cc2ccc(F)cc2)=C(O)C1=O` [Compound 11, 4-Hydroxy-1-isopropyl-5-oxo-2,5-dihydro-1H-pyrrole-3-carboxylic acid (4-fluoro-benzyl)-methyl-amide] stands 99.9%; under `CN1CC(C(=O)N(C)Cc2ccc(Cl)c(Cl)c2)=C(O)C1=O` [Compound 12, 4-Hydroxy-1-methyl-5-oxo-2,5-dihydro-1H-pyrrole-3-carboxylic acid (3,4-dichloro-benzyl)-methyl amide], 99.9%; under `CN(Cc1ccc(Cl)c(Cl)c1)C(=O)C1=C(O)C(=O)N(CCN2CCOCC2)C1` [Compound 13, 4-Hydroxy-1-(2-morpholin-4-yl-ethyl)-5-oxo-2,5-dihydro-1H-pyrrole-3-carboxylic acid (3,4-dichloro-benzyl)-methyl-amide], 99.9%.
Under `CNCCN1CC(C(=O)N(C)Cc2ccc(Cl)c(Cl)c2)=C(O)C1=O` [Compound 15, 4-Hydroxy-1-(2-methylamino-ethyl)-5-oxo-2,5-dihydro-1H-pyrrole-3-carboxylic acid (3,4-dichloro-benzyl)-methyl-amide] stands 99.7%.
On to `CN(Cc1ccc(Cl)c(Cl)c1)C(=O)C1=C(O)C(=O)N(CC(C)(C)C)C1` [Compound 16, 1-(2,2-Dimethyl-propyl)-4-hydroxy-5-oxo-2,5-dihydro-1H-pyrrole-3-carboxylic acid (3,4-dichloro-benzyl)-methyl-amide], for which the inhibition at 20 µM was 99.9%.
With `CN(Cc1ccc(Cl)c(Cl)c1)C(=O)C1=C(O)C(=O)N(CCc2ccc(S(N)(=O)=O)cc2)C1` [Compound 17, 4-Hydroxy-5-oxo-1-[2-(4-sulfamoyl-phenyl)-ethyl]-2,5-dihydro-1H-pyrrole-3-carboxylic acid (3,4-dichloro-benzyl)-methyl-amide], the inhibition at 20 µM came to 99.9%.
Under `CN(Cc1ccc(Cl)c(Cl)c1)C(=O)C1=C(O)C(=O)N(Cc2ccc(Cl)c(Cl)c2)C1` [Compound 19, 1-(3,4-Dichloro-benzyl)-4-hydroxy-5-oxo-2,5-dihydro-1H-pyrrole-3-carboxylic acid (3,4-dichloro-benzyl)-methyl-amide] stands 99.9%.
Under `CN(Cc1ccc(Cl)c(Cl)c1)C(=O)C1=C(O)C(=O)N(Cc2ccncc2)C1` [Compound 21] stands 99.9%; under `CCN1CCCC1CN1CC(C(=O)N(C)Cc2ccc(Cl)c(Cl)c2)=C(O)C1=O` (stereo not drawn) [Compound 22, 1-(1-Ethyl-pyrrolidin-2-ylmethyl)-4-hydroxy-5-oxo-2,5-dihydro-3-carboxylic acid (3,4-dichloro-benzyl)-methyl-amide], 99.9%; under `CN(Cc1ccc(Cl)c(Cl)c1)C(=O)C1=C(O)C(=O)N(CCP(=O)(O)O)C1` [Compound 23, (2-{4-[(3,4-Dichloro-benzyl)-methyl-carbamoyl]-3-hydroxy-2-oxo-2,5-dihydro-pyrrol-1-yl}-ethyl)-phosphonic acid], 99.9%.
Under `CCOP(=O)(CCN1CC(C(=O)N(C)Cc2ccc(Cl)c(Cl)c2)=C(O)C1=O)OCC` [Compound 23-A, (2-[4-[(3,4-Dichloro-benzyl)-methyl-carbamoyl]-3-hydroxy-2-oxo-2,5-dihydro-pyrrol-1-yl]-ethyl)-phosphonic acid diethyl ester] stands 99.9%.
With `CN(Cc1ccc(Cl)c(Cl)c1)C(=O)C1=C(O)C(=O)N(CCCC(=O)O)C1` [Compound 24, 4-{4-[(3,4-Dichloro-benzyl)-methyl-carbamoyl]-3-hydroxy-2-oxo-2,5-dihydro-pyrrol-1-yl}-butyric acid], the inhibition at 20 µM amounted to 99.9%.
Under `CN(Cc1ccc(Cl)c(Cl)c1)C(=O)C1=C(O)C(=O)N(C(CC(N)=O)C(=O)O)C1` (stereo not drawn) [Compound 25, 2-{4-[(3,4-Dichloro-benzyl)-methyl-carbamoyl]-3-hydroxy-2-oxo-2,5-dihydro-pyrrol-1-yl}-succinamic acid] stands 99.9%; under `CN(Cc1ccc(Cl)c(Cl)c1)C(=O)C1=C(O)C(=O)N(CCN2CCCCC2)C1` [Compound 26, 4-Hydroxy-5-oxo-1-(2-piperidin-1-yl-ethyl)-2,5-dihydro-1H-pyrrole-3-carboxylic acid (3,4-dichloro-benzyl)-methyl-amide], 99.9%; under `CC(=O)NCCN1CC(C(=O)N(C)Cc2ccc(Cl)c(Cl)c2)=C(O)C1=O` [Compound 27], 99.9%.
For the compound `CN(Cc1ccc(Cl)c(Cl)c1)C(=O)C1=C(O)C(=O)N(CCCCCCC(=O)O)C1` [Compound 28, 7-{4-[(3,4-dichloro-benzyl)-methyl-carbamoyl]-3-hydroxy-2-oxo-2,5-dihydro-pyrrol-1-yl}-heptanoic acid], the inhibition at 20 µM was determined as 99.9%.
Under `CN(Cc1ccc(Cl)c(Cl)c1)C(=O)C1=C(O)C(=O)N(CCC(=O)NC(Cc2cncn2C)C(=O)O)C1` (stereo not drawn) [Compound 29] stands 99.9%.
Turning to `CN(Cc1ccc(Cl)c(Cl)c1)C(=O)C1=C(O)C(=O)N(CCCn2ccnc2)C1` [Compound 30, 4-Hydroxy-1-(3-imidazol-1-yl-propyl)-5-oxo-2,5-dihydro-1H-pyrrole-3-carboxylic acid (3,4-dichloro-benzyl)-methyl-amide], the inhibition at 20 µM came out at 99.9%.
For the compound `CN(Cc1ccc(Cl)c(Cl)c1)C(=O)C1=C(O)C(=O)N(Cc2cccs2)C1` [Compound 31], the inhibition at 20 µM came out at 99.9%.
Under `CN1CCN(CCN2CC(C(=O)N(C)Cc3ccc(Cl)c(Cl)c3)=C(O)C2=O)CC1` [Compound 32, 4-Hydroxy-1-[2-(4-methyl-piperazin-1-yl)-ethyl]-5-oxo-2,5-dihydro-1H-pyrrole-3-carboxylic acid (3,4-dichloro-benzyl)-methyl-amide] stands 99.9%; under `COC(=O)CCCN1CC(C(=O)N(C)Cc2ccc(Cl)c(Cl)c2)=C(O)C1=O` [Compound 33], 99.9%; under `COC(=O)CCN1CC(C(=O)N(C)Cc2ccc(Cl)c(Cl)c2)=C(O)C1=O` [Compound 34, 3-{4-[(3,4-Dichloro-benzyl)-methyl-carbamoyl]-3-hydroxy-2-oxo-2,5-dihydro-pyrrol-1-yl}-propionic acid methyl ester], 99.9%.
Take `CN(Cc1ccc(Cl)c(Cl)c1)C(=O)C1=C(O)C(=O)N(CC(=O)NCC(=O)NCCC(=O)NCC(=O)O)C1` [Compound 35, {3-[2-(2-{4-[(3,4-Dichloro-benzyl)-methyl-carbamoyl]-3-hydroxy-2-oxo-2,5-dihydro-pyrrol-1-yl}-acetylamino)-acetylamino]-propionylamino}-acetic acid]: the inhibition at 20 µM came to 99.9%.
